From patent US8003630B2, “Combinatorial therapies for the treatment of neoplasias using the opioid growth factor receptor” (The Penn State Research Foundation, priority 2004, dated 2011)
Marks after values point to notes of the source that are not given here.

Experiments:
SCC-1 cells [1] = test: Cell proliferation assays of SCC-1 cells (MTS or cell counting), Example 8; assay type: cell-based, human; conditions: for rates of growth over the 4 day period: slopes of growth curves; for difference in cell number between reversal group and group continuing drug exposure: within 48 hr after withdrawal
Protocol: (§1) The UM-SCC-1 cell line (SCC-1) was derived from a well-differentiated recurrent squamous cell carcinoma in the floor of the mouth of a person (25). This cell line was obtained from The University of Michigan, Cancer Research Laboratory (Thomas E. Carey, Ph.D., Director). CAL-27 human squamous cell carcinoma cell line, derived from a poorly differentiated carcinoma of the tongue in a person ([…]), was obtained from the American Type Culture Collection (Manassas, Va.). Both cell lines were grown in Dulbecco's MEM (modified) media supplemented with 10% fetal calf serum, 1.2% sodium bicarbonate, and antibiotics (5,000 Units/ml penicillin, 5 mg/ml streptomycin, 10 mg/ml neomycin). The cell cultures were maintained in a humidified atmosphere of 7% CO2/93% air at 37° C.
(§2) Cells were seeded at equivalent amounts into either 6-well or 96-well plates (Falcon) and counted 24 hr later to determine plating efficiency.
The dosage of carboplatin selected was based on previous reports (27, 28), as well as preliminary studies in our laboratory.
(§3) Cell number was recorded either by using the MTS proliferation bioassay (Cell Titer 96 One Solution, Promega, Madison, Wis.) and measuring absorbency after 4 hr on a Biorad (Model 3550) plate reader at 490 nm with a 750 nm background absorbance screening, or by directly counting cells. The MTS assay utilized 10 wells/treatment. For manual counts, cells were harvested by trypsinization with 0.25% trypsin/0.53 mM EDTA, centrif uiged, and counted with a hemacytometer. Cell viability was determined by trypan blue staining. At least two aliquots per well, and 4-10 wells/treatment, were counted at each time for manual counting.
For some experiments, the rate of growth over a 96-hr period of time was calculated using linear regression analyses. The slopes of the lines (number of cells/hr) were compared by analysis of variance. All calculations were performed with GraphPad Prism software.

CAL-27 cells = test: Cell proliferation assay of CAL-27 cells; assay type: cell-based, human; conditions: 48 hr; for fewer cells than in control cultures: OGF 10^−6 M and/or paclitaxel 10^−10 M
Protocol: as §1, §2, §3

SCC-1 cells [2] = test: SCC-1 xenograft in nude mice, tumor growth, survival, termination day measurements (Example 9); conditions: for latency time to develop visible tumors: controls 7 days; for Incidence of measurable tumor (day 17) / Incidence of measurable tumor (day 13): mice with tumor/N; for Incidence of measurable tumor (day 13): OGF 10 mg/kg daily and/or paclitaxel 8 mg/kg every other day i.p.; for Metastases: spleen, liver, lymph nodes
Excerpt: Male 4 week old nu/nu nude mice purchased from Harlan Laboratories (Indianapolis, Ind.) were housed in pathogen-free isolators in the Department of Comparative Medicine at the Penn State University College of Medicine. All procedures were approved by the IACUC committee of the Penn State University College of Medicine and conformed to the guidelines established by NIH. Mice were allowed 48 hr to acclimate prior to beginning experimentation.
Tumor cells were inoculated into nude mice by subcutaneous injection into the right scapular region. Subcutaneous injections were performed with at least 2×10^6 cells per mouse; mice were not anesthetized for this procedure.
Dosages were selected based on published reports. […] Injections of drugs were initiated 1 hr after tumor cell inoculation. […] Mice were weighed weekly to determine drug dosage.
Mice were observed daily for the presence of tumors. The latency for a visible tumor to appear, and the time until tumors were measurable (i.e., 62.5 mm^3), were recorded. Tumors were measured using calipers every day. Tumor volume was calculated using the formula w^2×1×π/6, where the length is the longest dimension, and width is the dimension perpendicular to length.
According to institutional policies and IACUC guidelines, mice were terminated when tumors became ulcerated, or tumors grew to 2 cm in diameter. […] Tumors and spleens were removed and weighed, and the lymph nodes, liver, and spleen examined for metastases.

SCC-1 SCCHN cells = test: SCC-1 SCCHN tumors in athymic nude mice (Examples 1c and 2)
Protocol: Tumor dimensions were recorded every day beginning on the day that the tumors were considered measurable.

SCC-1 cells [3] = test: DNA synthesis, BrdU incorporation into SCC-1 cells; assay type: cell-based, human; conditions: 3 days of drug treatment
Protocol: To examine DNA synthesis, SCC-1 cells were seeded onto 22 mm diameter coverglasses placed in 6-well plates (3×10^3 cells/coverglass). […] Three hours prior to fixing cells, 30 μM BrdU was added to cultures. At appropriate times, cells were rinsed, fixed in 10% neutral buffered formalin, and stained with antibodies to BrdU (Roche, Indianapolis, Ind.). The number of positive cells was recorded using fluorescence microscopy. At least 1000 cells/treatment at each time were counted.

SCC-1 cells [4] = test: Apoptosis, caspase-3 activity by flow cytometry in SCC-1 cells; assay type: cell-based, human; conditions: for percentage of caspase-3 positive cells: SCC-1, one day of treatment
Protocol: Caspase-3-FITC positive staining was used to characterize early stages of apoptosis (29). SCC-1 cells were seeded into 6-well plates and treated with drugs beginning 24 hr later; drugs and media were replaced daily. Cells were harvested after 1, 3 and 6 days of drug treatment, and prepared according to manufacturer's recommendations for FACS analysis (FACS cell sorter with a 15 mW argon ion laser at 488 nm; Becton, Dickinson and Company, Franklin Lakes, N.J.). […] Three samples from each treatment were analyzed at each time point. The percent gated cells recorded by flow cytometry was considered caspase positive.

[5] = SCC-1, 48 hr, OGF 10^−6 M and/or paclitaxel 10^−8 M
[6] = SCC-1, 72 hr, OGF 10^−6 M and/or paclitaxel 10^−8 M
[7] = SCC-1, 96 hr, OGF 10^−6 M and/or paclitaxel 10^−8 M
[8] = day 50 (paclitaxel group: day each mouse died), means ± SEM

Compound: CC(=O)O[C@H]1C(=O)[C@@]2(C)[C@H]([C@H](OC(=O)c3ccccc3)[C@]3(O)C[C@H](OC(=O)[C@H](O)[C@@H](NC(=O)c4ccccc4)c4ccccc4)C(C)=C1C3(C)C)[C@]1(OC(C)=O)CO[C@@H]1C[C@@H]2O [paclitaxel]
- inhibition at 0.01 µM (SCC-1 cells [1]; Homo sapiens, read-out: inhibition of cell growth relative to control levels): 8.8 to 26%
- reduction of cell number from control levels (SCC-1 cells [1]; [5]): ~33%
- reduction of cell number from control levels (SCC-1 cells [1]; [6]): 25%
- reduction of cell number from control levels (SCC-1 cells [1]; [7]): 51%
- rates of growth over the 4 day period (SCC-1 cells [1]; SCC-1): notably reduced from control values
- difference in cell number between reversal group and group continuing drug exposure (SCC-1 cells [1]; SCC-1): did not differ
- fewer cells than in control cultures (CAL-27 cells): 35%
- growth depressed from control levels (CAL-27 cells; paclitaxel 10^−7 M): 66%
- growth depressed from control levels (CAL-27 cells; paclitaxel 10^−8 M): 53%
- growth depressed from control levels (CAL-27 cells; paclitaxel 10^−9 M): 44%
- growth depressed from control levels (CAL-27 cells; paclitaxel 10^−10 M): 22%
- deaths during the experimental period (SCC-1 cells [2]; 50 days): only one mouse in this group was alive
- latency time to develop visible tumors (SCC-1 cells [2]): comparable
- mice with measurable tumors (SCC-1 cells [2]; day 13): 66%
- mice with measurable tumors (SCC-1 cells [2]; day 17): 83%
- Body Weight, g (SCC-1 cells [2]; [8]): 22.6 ± 0.8***+++^^^ g
- Spleen Weight (SCC-1 cells [2]; [8]): 243 ± 8 mg
- mice that had died by day 40 (SCC-1 cells [2]; male, nu/nu nude, mouse, in vivo, 8 mg/kg, 40 day): 75%
- time within which mice began dying (SCC-1 cells [2]; male, nu/nu nude, mouse, in vivo, 50 days): ≤ 20 days
- Latency to measurable tumor (SCC-1 cells [2]; means ± SEM): 14.8 ± 1.7 days
- Latency to visible tumor (SCC-1 cells [2]; means ± SEM): 7.4 ± 1.4 days
- Incidence of measurable tumor (day 17) (SCC-1 cells [2]): 10/12
- Incidence of measurable tumor (day 13) (SCC-1 cells [2]): 8/12
- body weight subnormal by (SCC-1 cells [2]; mouse, in vivo): 9-10%
- gross observations and pathological findings (SCC-1 cells [2]; mouse, in vivo): distended abdomens, impacted bowel, and severe body weight loss
- Metastases (SCC-1 cells [2]): none
- average life span (SCC-1 SCCHN cells; 50-day study): 34.3 ± 3.1 days
- mice with tumors (SCC-1 SCCHN cells; day 13 after tumor cell inoculation): 66%
- observations on organs after premature death (SCC-1 SCCHN cells; histological analysis): distended abdomens with associated megacolon
- mice that had died by day 40 (SCC-1 SCCHN cells; nude mice with SCC-1 tumors): 75%
- body weight less than controls (SCC-1 SCCHN cells; nude mice with SCC-1 tumors, day 20): 11%
- body weight less than controls, OGF and paclitaxel/OGF treated mice (SCC-1 SCCHN cells; nude mice with SCC-1 tumors, day 50): 28%
- decrease in the number of BrdU positive cells from control levels (SCC-1 cells [3]): 24%
- fraction of SCCHN cells apoptotic (SCC-1 cells [4]; 6 days of drug exposure): over one-half
- percentage of caspase-3 positive cells (SCC-1 cells [4]): negligible

Compound: [Met^5]-enkephalin [OGF]
- reduction of cell number from control levels (SCC-1 cells [1]; SCC-1, MTS, 48-96 hr, OGF 10^−6 M alone or with carboplatin 10^−7 M): 8-10%
- reduction of cell number from control levels (SCC-1 cells [1]; [5]): approximately 10%
- reduction of cell number from control levels (SCC-1 cells [1]; [6]): 10%
- reduction of cell number from control levels (SCC-1 cells [1]; [7]): 23%
- decrease from control levels in absorbency readings (SCC-1 cells [1]; SCC-1, opioids 10^−6 M daily): 19%
- rates of growth over the 4 day period (SCC-1 cells [1]; SCC-1): notably reduced from control values
- difference in cell number between reversal group and group continuing drug exposure (SCC-1 cells [1]; SCC-1): 16%
- fewer cells than in control cultures (CAL-27 cells): 25%
- latency time to develop visible tumors (SCC-1 cells [2]): 11 days
- mice with measurable tumors (SCC-1 cells [2]; day 13): 33%
- mice with measurable tumors (SCC-1 cells [2]; day 17): 66%
- tumor volume reduction from control values (SCC-1 cells [2]; day 50): 33%
- Tumor Volume, mm^3 (SCC-1 cells [2]; day 50, means ± SEM): 2590 ± 364* mm^3
- Tumor Weight (SCC-1 cells [2]; day 50, means ± SEM): 1.7 ± 0.2 g
- Latency to measurable tumor (days) (SCC-1 cells [2]; means ± SEM): 17.0 ± 1.5^ days
- Latency to visible tumor (days) (SCC-1 cells [2]; means ± SEM): 11.2 ± 1.5^b days
- Incidence of measurable tumor (day 17) (SCC-1 cells [2]): 8/12
- Incidence of measurable tumor (day 13) (SCC-1 cells [2]): 4/12^a
- delay of visible tumors versus controls (SCC-1 cells [2]; p<0.02): four-day delay
- Metastases (SCC-1 cells [2]): none
- weights of tumors reduced from control levels (SCC-1 cells [2]; termination day (day 50)): 29%
- latency time for measurable (62.5 mm^3) tumors (SCC-1 SCCHN cells; after tumor cell inoculation): ≤ 17 days
- latency to a visible tumor (SCC-1 SCCHN cells; after tumor cell inoculation): ≤ 11 days
- reduction of tumor size versus control mice (SCC-1 SCCHN cells; second timepoint (4th day of measurable tumors)): 26%
- delay in visible tumor development (SCC-1 SCCHN cells; versus control mice): ~4 days
- decrease in the number of BrdU positive cells from control levels (SCC-1 cells [3]): 61%
- percentage of caspase-3 positive cells (SCC-1 cells [4]): negligible
